# Test system: DENV-3 strain H87 prototype
# Experiment: Antiviral activity against DENV-3 in Vero-B cells (viral RNA load by RT-qPCR)
# Type: cell-based, Dengue virus
# Conditions: not given
row,Structure (SMILES),EC50
1,"COc1cncc(NC(C(=O)c2c[nH]c3ccc(F)cc23)c2ccc(OC)nc2)c1 (single isomer, unassigned) [CPD-323]",4.99 µM

# Same assay, conditions: Dengue virus, DENV3, Vero B
row,Structure (SMILES),EC50
1,COc1cncc(NC(C(=O)c2c[nH]c3ccccc23)c2ccccc2)c1 (stereo not shown) [CPD-067],1.2 µM
2,COc1cccc(NC(C(=O)c2c[nH]c3cc(Cl)ccc23)c2ccccc2)c1 (stereo not shown) [CPD-118],3.68 µM
3,COc1cccc(NC(C(=O)c2c[nH]c3ccccc23)c2cccc(C)c2)c1 (stereo not shown) [CPD-138],6.52 µM

# Test system: DENV-1 Djibouti strain D1/H/IMTSSA/98/606
# Experiment: Antiviral activity against DENV-1 in Vero-B cells (viral RNA load by RT-qPCR)
# Type: cell-based, Dengue virus
# Conditions: not given
row,Structure (SMILES),EC50
1,"COc1cncc(NC(C(=O)c2c[nH]c3ccc(F)cc23)c2ccc(OC)nc2)c1 (single isomer, unassigned) [CPD-323]",3.62 µM

# Same assay, conditions: Dengue virus, DENV1, Vero B
row,Structure (SMILES),EC50
1,COc1cccc(NC(C(=O)c2c[nH]c3ccccc23)c2ccncc2)c1 (stereo not shown) [CPD-020],15.1 µM
2,COc1cncc(NC(C(=O)c2c[nH]c3ccccc23)c2ccccc2)c1 (stereo not shown) [CPD-067],< 0.5 µM
3,COc1cccc(NC(C(=O)c2c[nH]c3cc(Cl)ccc23)c2ccccc2)c1 (stereo not shown) [CPD-118],0.44 µM
4,COc1cccc(NC(C(=O)c2c[nH]c3ccccc23)c2cccc(C)c2)c1 (stereo not shown) [CPD-138],3.21 µM

# Test system: uninfected quiescent Vero-B cells
# Experiment: Cytotoxic assay in uninfected quiescent Vero-B cells (MTS/PMS)
# Conditions: 4 days (Table 3)
row,Structure (SMILES),CC50
1,"COc1cncc(NC(C(=O)c2c[nH]c3ccc(F)cc23)c2ccc(OC)nc2)c1 (single isomer, unassigned) [CPD-323]",58 µM
2,O=C(c1c[nH]c2ccccc12)C(Nc1cccc(OC(F)(F)F)c1)c1ccccc1 (stereo not shown) [CPD-005],5 µM
3,O=C(c1c[nH]c2ccccc12)C(Nc1cccc(F)c1)c1ccccc1 (stereo not shown) [CPD-008],12 µM
4,O=C(c1c[nH]c2ccccc12)C(Nc1cc(F)cc(F)c1)c1ccccc1 (stereo not shown) [CPD-011],23 µM
5,COc1cc(F)cc(NC(C(=O)c2c[nH]c3ccccc23)c2ccccc2)c1 (stereo not shown) [CPD-015],22 µM
6,O=C(c1c[nH]c2ccccc12)C(Nc1cccnc1)c1ccccc1 (stereo not shown) [CPD-016],54 µM
7,COc1cccc(NC(C(=O)c2c[nH]c3ccccc23)c2ccncc2)c1 (stereo not shown) [CPD-020],16 µM
8,COc1cccc(NC(C(=O)c2c[nH]c3ccccc23)c2ccc(S(C)(=O)=O)cc2)c1 (stereo not shown) [CPD-021],> 115 µM
9,COc1cccc(NC(C(=O)c2c[nH]c3ccccc23)c2ccco2)c1 (stereo not shown) [CPD-023],16 µM
10,N#Cc1cccc(NC(C(=O)c2c[nH]c3ccccc23)c2ccccc2)c1 (stereo not shown) [CPD-035],14 µM
11,COc1cccc(NC(C(=O)c2c[nH]c3ccccc23)c2ccc3nccnc3c2)c1 (stereo not shown) [CPD-037],19 µM
12,COc1ccc(OC)c(NC(C(=O)c2c[nH]c3ccccc23)c2ccccc2)c1 (stereo not shown) [CPD-039],15 µM
13,COc1cccc(NC(C(=O)c2c[nH]c3ccccc23)c2ccccc2)c1OC (stereo not shown) [CPD-040],> 129 µM
14,CS(=O)(=O)c1cccc(NC(C(=O)c2c[nH]c3ccccc23)c2ccccc2)c1 (stereo not shown) [CPD-044],65 µM
15,O=C(c1c[nH]c2ccccc12)C(Nc1ccc2[nH]c(=O)oc2c1)c1ccccc1 (stereo not shown) [CPD-057],15 µM
16,COc1ccnc(NC(C(=O)c2c[nH]c3ccccc23)c2ccccc2)c1 (stereo not shown) [CPD-066],95 µM
17,COc1cncc(NC(C(=O)c2c[nH]c3ccccc23)c2ccccc2)c1 (stereo not shown) [CPD-067],20 µM
18,COc1nc(NC(C(=O)c2c[nH]c3ccccc23)c2ccccc2)ns1 (stereo not shown) [CPD-070],90 µM
19,COc1cccc(NC(C(=O)c2c[nH]c3cc(Cl)ccc23)c2ccccc2)c1 (stereo not shown) [CPD-118],13 µM
20,COc1cccc(NC(C(=O)c2c[nH]c3ccccc23)c2cccc(C)c2)c1 (stereo not shown) [CPD-138],20 µM
21,O=C(c1c[nH]c2ccccc12)C(NC1CCCC1)c1ccccc1 (stereo not shown) [CPD-183],86 µM
22,COc1cccc(NC(C(=O)c2c[nH]c3c(F)cccc23)c2ccccc2)c1 (stereo not shown) [CPD-205],14 µM
23,COc1cc(NC(C(=O)c2c[nH]c3ccccc23)c2ccccc2)cc(OCCN(C)C)c1 (stereo not shown) [CPD-243],13 µM
24,COc1cccc(NC(C(=O)c2c[nH]c3ccccc23)c2ccccc2)n1 (stereo not shown) [CPD-277],16 µM
25,COc1cc(NC(C(=O)c2c[nH]c3cccc(CCCO)c23)c2ccccc2)cc(OC)c1 (stereo not shown) [CPD-357],55 µM
26,COc1cc(NC(C(=O)c2c[nH]c3ccccc23)c2ccccc2)cc(OCCCO)c1 (stereo not shown) [CPD-361],50 µM

# Test system: DENV-2 NGC
# Experiment: Antiviral activity against DENV-2 NGC in Vero-B cells (viral RNA load by RT-qPCR)
# Type: cell-based, Dengue virus
# Conditions: DENV-2 in Vero-B cells; inhibition of viral RNA replication by 50% (Table 3)
row,Structure (SMILES),EC50
1,"COc1cncc(NC(C(=O)c2c[nH]c3ccc(F)cc23)c2ccc(OC)nc2)c1 (single isomer, unassigned) [CPD-323]",0.35 µM

# Same assay, conditions: Dengue virus, DENV2, Vero B, DENV-2 in Vero-B cells; inhibition of viral RNA replication by 50% (Table 3)
row,Structure (SMILES),EC50
1,O=C(c1c[nH]c2ccccc12)C(Nc1cccc(OC(F)(F)F)c1)c1ccccc1 (stereo not shown) [CPD-005],0.93 µM
2,O=C(c1c[nH]c2ccccc12)C(Nc1cccc(F)c1)c1ccccc1 (stereo not shown) [CPD-008],2.42 µM
3,O=C(c1c[nH]c2ccccc12)C(Nc1cc(F)cc(F)c1)c1ccccc1 (stereo not shown) [CPD-011],1.66 µM
4,COc1cc(F)cc(NC(C(=O)c2c[nH]c3ccccc23)c2ccccc2)c1 (stereo not shown) [CPD-015],0.02 µM
5,O=C(c1c[nH]c2ccccc12)C(Nc1cccnc1)c1ccccc1 (stereo not shown) [CPD-016],5.01 µM
6,COc1cccc(NC(C(=O)c2c[nH]c3ccccc23)c2ccncc2)c1 (stereo not shown) [CPD-020],0.14 µM
7,COc1cccc(NC(C(=O)c2c[nH]c3ccccc23)c2ccc(S(C)(=O)=O)cc2)c1 (stereo not shown) [CPD-021],1.62 µM
8,COc1cccc(NC(C(=O)c2c[nH]c3ccccc23)c2ccco2)c1 (stereo not shown) [CPD-023],0.3 µM
9,N#Cc1cccc(NC(C(=O)c2c[nH]c3ccccc23)c2ccccc2)c1 (stereo not shown) [CPD-035],2.11 µM
10,COc1cccc(NC(C(=O)c2c[nH]c3ccccc23)c2ccc3nccnc3c2)c1 (stereo not shown) [CPD-037],1.2 µM
11,COc1ccc(OC)c(NC(C(=O)c2c[nH]c3ccccc23)c2ccccc2)c1 (stereo not shown) [CPD-039],2.48 µM
12,COc1cccc(NC(C(=O)c2c[nH]c3ccccc23)c2ccccc2)c1OC (stereo not shown) [CPD-040],4.24 µM
13,CS(=O)(=O)c1cccc(NC(C(=O)c2c[nH]c3ccccc23)c2ccccc2)c1 (stereo not shown) [CPD-044],6.48 µM
14,O=C(c1c[nH]c2ccccc12)C(Nc1ccc2[nH]c(=O)oc2c1)c1ccccc1 (stereo not shown) [CPD-057],6.05 µM
15,COc1ccnc(NC(C(=O)c2c[nH]c3ccccc23)c2ccccc2)c1 (stereo not shown) [CPD-066],6.32 µM
16,COc1cncc(NC(C(=O)c2c[nH]c3ccccc23)c2ccccc2)c1 (stereo not shown) [CPD-067],0.04 µM
17,COc1nc(NC(C(=O)c2c[nH]c3ccccc23)c2ccccc2)ns1 (stereo not shown) [CPD-070],3.27 µM
18,COc1cccc(NC(C(=O)c2c[nH]c3cc(Cl)ccc23)c2ccccc2)c1 (stereo not shown) [CPD-118],0.01 µM
19,COc1cccc(NC(C(=O)c2c[nH]c3ccccc23)c2cccc(C)c2)c1 (stereo not shown) [CPD-138],0.27 µM
20,O=C(c1c[nH]c2ccccc12)C(NC1CCCC1)c1ccccc1 (stereo not shown) [CPD-183],15.2 µM
21,COc1cccc(NC(C(=O)c2c[nH]c3c(F)cccc23)c2ccccc2)c1 (stereo not shown) [CPD-205],0.06 µM
22,COc1cc(NC(C(=O)c2c[nH]c3ccccc23)c2ccccc2)cc(OCCN(C)C)c1 (stereo not shown) [CPD-243],1.69 µM
23,COc1cccc(NC(C(=O)c2c[nH]c3ccccc23)c2ccccc2)n1 (stereo not shown) [CPD-277],0.29 µM
24,COc1cc(NC(C(=O)c2c[nH]c3cccc(CCCO)c23)c2ccccc2)cc(OC)c1 (stereo not shown) [CPD-357],1.35 µM
25,COc1cc(NC(C(=O)c2c[nH]c3ccccc23)c2ccccc2)cc(OCCCO)c1 (stereo not shown) [CPD-361],0.09 µM
